Experimental data taken from PubChem BioAssay AID2060599 (Molecular Pharmacology Branch, DTP, NCI, 2025).

test system: 817829-284-R-J1-PDC complex spheroids, viability; assay: Anticancer human tumor 817829-284-R-J1-PDC patient-derived colon adenocarcinoma cell line growth inhibition [CLK]; details: second compound 3.16 µM; first compound 0.0316 µM; hits give low values
Procedure, shortened: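 Multi-cell-type spheroids combined patient-derived tumor cells with HUVEC endothelial cells and human mesenchymal stem cells. Paired agents were dosed in half-log steps down from about clinical Cmax, or from 10 microM where Cmax was unknown.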
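Also: spheroids exposed to the agents for seven days before readout.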

Question: How did the viability, T/C turn out when CCN1CCN(Cc2ccc(Nc3ncc(F)c(-c4cc(F)c5nc(C)n(C(C)C)c5c4)n3)nc2)CC1 + CN1CCN(c2cc(C(=O)Nc3cc4cc(-c5cnn(C)c5)ccc4cn3)ccn2)CC1 was run?
Answer: Its viability, T/C is 0.12%.

Question: With COc1c(OCCCN2CCOCC2)ccc2c3n(c(=NC(=O)c4cnc(N)nc4)nc12)CCN3 + CN1CCN(c2cc(C(=O)Nc3cc4cc(-c5cnn(C)c5)ccc4cn3)ccn2)CC1 as the compound, how does the viability, T/C read?
Answer: The viability, T/C was 0.13%.

same assay, conditions: second compound 3.16 µM; first compound 0.1 µM; hits give low values

Question: For C#Cc1c(F)ccc2cc(O)cc(-c3ncc4c(N5CC6CCC(C5)N6)nc(OCC56CCCN5CC(F)C6)nc4c3F)c12 (stereo unspecified) + CN1CCN(c2cc(C(=O)Nc3cc4cc(-c5cnn(C)c5)ccc4cn3)ccn2)CC1, which viability, T/C is on record?
Answer: The viability, T/C was 0.13%.

Question: For CC(CO)NC(=O)c1cc(-c2ccc(Cl)cc2)nn(-c2cnn(C)c2)c1=O (stereo unspecified) + CN1CCN(c2cc(C(=O)Nc3cc4cc(-c5cnn(C)c5)ccc4cn3)ccn2)CC1, which viability, T/C is on record?
Answer: Its viability, T/C is 0.27%.

Question: CC(Nc1ccc2c(c1)OCCn1cc(N3C(=O)OCC3C(F)F)nc1-2)C(N)=O (stereo unspecified) + CN1CCN(c2cc(C(=O)Nc3cc4cc(-c5cnn(C)c5)ccc4cn3)ccn2)CC1 was tested. Which viability, T/C did it give?
Answer: The viability, T/C was 0.15%.

Question: Which viability, T/C does the source give for CCN1CCN(Cc2ccc(Nc3ncc(F)c(-c4cc(F)c5nc(C)n(C(C)C)c5c4)n3)nc2)CC1 + CN1CCN(c2cc(C(=O)Nc3cc4cc(-c5cnn(C)c5)ccc4cn3)ccn2)CC1 here?
Answer: Its viability, T/C is 0.15%.

Question: Which viability, T/C does the source give for COc1c(OCCCN2CCOCC2)ccc2c3n(c(=NC(=O)c4cnc(N)nc4)nc12)CCN3 + CN1CCN(c2cc(C(=O)Nc3cc4cc(-c5cnn(C)c5)ccc4cn3)ccn2)CC1 here?
Answer: The viability, T/C was 0.09%.

same assay, conditions: second compound 3.16 µM; first compound 0.316 µM; hits give low values

Question: C#Cc1c(F)ccc2cc(O)cc(-c3ncc4c(N5CC6CCC(C5)N6)nc(OCC56CCCN5CC(F)C6)nc4c3F)c12 (stereo unspecified) + CN1CCN(c2cc(C(=O)Nc3cc4cc(-c5cnn(C)c5)ccc4cn3)ccn2)CC1 was tested. Which viability, T/C did it give?
Answer: The viability, T/C was 0.15%.

Question: With CC(CO)NC(=O)c1cc(-c2ccc(Cl)cc2)nn(-c2cnn(C)c2)c1=O (stereo unspecified) + CN1CCN(c2cc(C(=O)Nc3cc4cc(-c5cnn(C)c5)ccc4cn3)ccn2)CC1 as the compound, how does the viability, T/C read?
Answer: The viability, T/C was 0.22%.

Question: Which viability, T/C does the source give for CC(Nc1ccc2c(c1)OCCn1cc(N3C(=O)OCC3C(F)F)nc1-2)C(N)=O (stereo unspecified) + CN1CCN(c2cc(C(=O)Nc3cc4cc(-c5cnn(C)c5)ccc4cn3)ccn2)CC1 here?
Answer: Its viability, T/C is 0.15%.

Question: CCN1CCN(Cc2ccc(Nc3ncc(F)c(-c4cc(F)c5nc(C)n(C(C)C)c5c4)n3)nc2)CC1 + CN1CCN(c2cc(C(=O)Nc3cc4cc(-c5cnn(C)c5)ccc4cn3)ccn2)CC1 was tested. Which viability, T/C did it give?
Answer: Its viability, T/C is 0.12%.

Question: COc1c(OCCCN2CCOCC2)ccc2c3n(c(=NC(=O)c4cnc(N)nc4)nc12)CCN3 + CN1CCN(c2cc(C(=O)Nc3cc4cc(-c5cnn(C)c5)ccc4cn3)ccn2)CC1 was tested. Which viability, T/C did it give?
Answer: The viability, T/C was 0.17%.

same assay, conditions: second compound 3.16 µM; first compound 1 µM; hits give low values

Question: For C#Cc1c(F)ccc2cc(O)cc(-c3ncc4c(N5CC6CCC(C5)N6)nc(OCC56CCCN5CC(F)C6)nc4c3F)c12 (stereo unspecified) + CN1CCN(c2cc(C(=O)Nc3cc4cc(-c5cnn(C)c5)ccc4cn3)ccn2)CC1, which viability, T/C is on record?
Answer: Its viability, T/C is 0.16%.

Question: How did the viability, T/C turn out when CC(CO)NC(=O)c1cc(-c2ccc(Cl)cc2)nn(-c2cnn(C)c2)c1=O (stereo unspecified) + CN1CCN(c2cc(C(=O)Nc3cc4cc(-c5cnn(C)c5)ccc4cn3)ccn2)CC1 was run?
Answer: The viability, T/C was 0.18%.

Question: How did the viability, T/C turn out when CC(Nc1ccc2c(c1)OCCn1cc(N3C(=O)OCC3C(F)F)nc1-2)C(N)=O (stereo unspecified) + CN1CCN(c2cc(C(=O)Nc3cc4cc(-c5cnn(C)c5)ccc4cn3)ccn2)CC1 was run?
Answer: Its viability, T/C is 0.15%.

Question: How did the viability, T/C turn out when CCN1CCN(Cc2ccc(Nc3ncc(F)c(-c4cc(F)c5nc(C)n(C(C)C)c5c4)n3)nc2)CC1 + CN1CCN(c2cc(C(=O)Nc3cc4cc(-c5cnn(C)c5)ccc4cn3)ccn2)CC1 was run?
Answer: The viability, T/C was 0.1%.

Question: For COc1c(OCCCN2CCOCC2)ccc2c3n(c(=NC(=O)c4cnc(N)nc4)nc12)CCN3 + CN1CCN(c2cc(C(=O)Nc3cc4cc(-c5cnn(C)c5)ccc4cn3)ccn2)CC1, which viability, T/C is on record?
Answer: Its viability, T/C is 0.17%.

same assay, conditions: second compound 3.16 µM; first compound 3.16 µM; hits give low values

Question: For C#Cc1c(F)ccc2cc(O)cc(-c3ncc4c(N5CC6CCC(C5)N6)nc(OCC56CCCN5CC(F)C6)nc4c3F)c12 (stereo unspecified) + CN1CCN(c2cc(C(=O)Nc3cc4cc(-c5cnn(C)c5)ccc4cn3)ccn2)CC1, which viability, T/C is on record?
Answer: The viability, T/C was 0.13%.

Question: Which viability, T/C does the source give for CC(CO)NC(=O)c1cc(-c2ccc(Cl)cc2)nn(-c2cnn(C)c2)c1=O (stereo unspecified) + CN1CCN(c2cc(C(=O)Nc3cc4cc(-c5cnn(C)c5)ccc4cn3)ccn2)CC1 here?
Answer: Its viability, T/C is 0.29%.

Question: CC(Nc1ccc2c(c1)OCCn1cc(N3C(=O)OCC3C(F)F)nc1-2)C(N)=O (stereo unspecified) + CN1CCN(c2cc(C(=O)Nc3cc4cc(-c5cnn(C)c5)ccc4cn3)ccn2)CC1 was tested. Which viability, T/C did it give?
Answer: The viability, T/C was 0.17%.

same assay, conditions: second compound 3.16 µM; first compound 10 µM; hits give low values

Question: Which viability, T/C does the source give for C#Cc1c(F)ccc2cc(O)cc(-c3ncc4c(N5CC6CCC(C5)N6)nc(OCC56CCCN5CC(F)C6)nc4c3F)c12 (stereo unspecified) + CN1CCN(c2cc(C(=O)Nc3cc4cc(-c5cnn(C)c5)ccc4cn3)ccn2)CC1 here?
Answer: The viability, T/C was 0.07%.

Question: How did the viability, T/C turn out when CC(CO)NC(=O)c1cc(-c2ccc(Cl)cc2)nn(-c2cnn(C)c2)c1=O (stereo unspecified) + CN1CCN(c2cc(C(=O)Nc3cc4cc(-c5cnn(C)c5)ccc4cn3)ccn2)CC1 was run?
Answer: Its viability, T/C is 0.19%.

Question: CC(Nc1ccc2c(c1)OCCn1cc(N3C(=O)OCC3C(F)F)nc1-2)C(N)=O (stereo unspecified) + CN1CCN(c2cc(C(=O)Nc3cc4cc(-c5cnn(C)c5)ccc4cn3)ccn2)CC1 was tested. Which viability, T/C did it give?
Answer: Its viability, T/C is 0.14%.

same assay, conditions: second compound 10 µM; first compound 0.00316 µM; hits give low values

Question: How did the viability, T/C turn out when CCN1CCN(Cc2ccc(Nc3ncc(F)c(-c4cc(F)c5nc(C)n(C(C)C)c5c4)n3)nc2)CC1 + CN1CCN(c2cc(C(=O)Nc3cc4cc(-c5cnn(C)c5)ccc4cn3)ccn2)CC1 was run?
Answer: The viability, T/C was 0.09%.

Question: COc1c(OCCCN2CCOCC2)ccc2c3n(c(=NC(=O)c4cnc(N)nc4)nc12)CCN3 + CN1CCN(c2cc(C(=O)Nc3cc4cc(-c5cnn(C)c5)ccc4cn3)ccn2)CC1 was tested. Which viability, T/C did it give?
Answer: The viability, T/C was 0.03%.

same assay, conditions: second compound 10 µM; first compound 0.01 µM; hits give low values

Question: How did the viability, T/C turn out when CCN1CCN(Cc2ccc(Nc3ncc(F)c(-c4cc(F)c5nc(C)n(C(C)C)c5c4)n3)nc2)CC1 + CN1CCN(c2cc(C(=O)Nc3cc4cc(-c5cnn(C)c5)ccc4cn3)ccn2)CC1 was run?
Answer: Its viability, T/C is 0.1%.
